The source of these data is PubChem BioAssay AID1508591.

Bounds are passed on as bounds.

For the series the following is noted: rat; liver microsomes; pH 7.4; 15.0 min; 1.0 µM. Background: Microsomes from liver hold many membrane-bound enzymes, among them those of drug oxidation.
Usually half-life stands for how long it takes for the measured level to halve. Low values mean rapid decline, high ones slow decline. The compound `O=[N+]([O-])c1cccnc1N/N=C/c1ccccc1O` came in with a half-life of 7.7 min.

In the case of `c1ccc(-c2nnc3n2NC(c2ccc4c(c2)OCO4)S3)cc1` (stereo unspecified), the half-life was greater than 30 min.

`CCN1C(=O)c2ccccc2[S@](=O)c2ccc(C(=O)NCc3ccc(C#N)cc3)cc21`: the half-life came out at 21 min.

`Cc1noc(C)c1S(=O)(=O)Nc1cnccc1C(=O)Nc1nc(-c2ccccc2)cs1` returned a half-life greater than 30 min.

`Cc1ccc(C2=CSC(NC(=O)CSc3nncn3C)=NN2)cc1` came in with a half-life of 1.8 min.

Compound `COc1cc(OC)c2c(=O)[nH]c(-c3cc(C)c(OCCO)c(C)c3)nc2c1` yielded a half-life greater than 30 min.

Regarding `COC(=O)c1c(NC(=O)Cc2coc3cc(C)ccc23)sc2c1CCC2`, the half-life was 2.31 min.

In turn, `O=C(c1ccc2c(c1)ncn2-c1cccc(C(F)(F)F)c1)N1CCCCC1` registered a half-life of 4.4 min.

Compound `NC(=O)c1cccc(-c2cc(Nc3ccc(OC(F)(F)F)cc3)ncn2)c1` returned a half-life greater than 30 min.

`Cc1cc(NS(=O)(=O)c2ccc(NC(=O)Cc3ccc(Cl)c(F)c3)cc2)no1` returned a half-life greater than 30 min.

The compound `Oc1ccc(CNc2ccccc2Br)c2cccnc12` gave a half-life of 4.46 min.

Regarding `COc1ccc(C(=O)NC2CCCc3c2[nH]c2ccccc32)cc1OC` (stereo unspecified), the half-life was found to be 24.6 min.

`CCc1cccc(NC(=O)c2cc(-c3ccc[nH]3)n[nH]2)c1`: the half-life was found to be 6.57 min.

As for `Cc1cccc(-n2cnc3cc(C(=O)N4CCCC(C)(C)C4)ccc32)c1`, the half-life came to 1.6 min.

Compound `NC(=O)C1CCN(c2nccc(-c3ccc4c(c3)OCCO4)n2)CC1` showed a half-life of 1.71 min.

`N#Cc1cccc(-c2nccc(-n3ccnc3)n2)c1`: the half-life was 26 min.

For the compound `OCC(O)CCO/N=C1/C(c2c(O)[nH]c3ccccc23)=Nc2ccccc21` (stereo unspecified), the half-life amounted to 10 min.

The compound `CC(C)c1ccccc1-c1ncc(F)c(NC(C)(C)c2ccc(-c3cccnc3)cc2)n1` came in with a half-life of 2.3 min.

With `CCOc1cc(-c2nccc3cc(OC)c(OC)cc23)cc(OCC)c1OCC`, the half-life worked out at 2.8 min.

`FC(F)(F)c1ccccc1-c1nc(NCc2ccc(Cl)cc2)c2ccccc2n1` registered a half-life greater than 30 min.

`O=C1CCCC2=C1C(c1[nH]ncc1Cl)N=C(Nc1nc3cc([S+](=O)([O-])N4CCCC4)ccc3o1)N2` (stereo unspecified) came in with a half-life of 8 min.

In turn, `c1cn2cc(-c3ccc4cn[nH]c4c3)nc(Nc3ccc(N4CCOCC4)cc3)c2n1` displayed a half-life of 24.9 min.

Regarding `CCN(CC)C(=O)c1coc(COc2ccc3c(c2)C(c2cccc(F)c2)N(C(=O)C(C)C)CC3)n1` (stereo unspecified), the half-life amounted to 1.28 min.

In the case of `CC(C)(C)c1ccc(SC2=NS(=O)(=O)c3ccccc32)cc1`, the half-life was 1.74 min.

In the case of `Oc1ccc(CNc2ccc(F)cc2F)c2cccnc12`, the half-life stood at 3.19 min.

`Fc1ccccc1CNCc1ccc(-c2ccnc3[nH]ccc23)cc1` displayed a half-life of 1.47 min.

`CCCc1ccc(-c2csc(NC(=O)c3ccncc3NS(=O)(=O)c3ccc(C)cc3)n2)cc1`: the half-life is 3.3 min.

The compound `O=[N+]([O-])c1cccc(CNc2ccc(S(=O)(=O)Nc3nccs3)cc2)c1O` showed a half-life greater than 30 min.

Take `COc1cc(-c2csc(N3CCC(C(N)=O)CC3)n2)cc(OC)c1OC`: the half-life is greater than 30 min.

Regarding `O=C1CCCC2=C1C1(CCCC1)N=C(Nc1nc3cc(Cl)ccc3o1)N2`, the half-life worked out at 2.6 min.

In turn, `CC(=O)N1CCc2cc(-c3nc(NC(=O)Cc4ccc5c(c4)OCO5)sc3C)ccc21` returned a half-life of 20 min.

In turn, `CC(=O)N1CCN(c2nc(-c3ccc(Br)cc3)cs2)CC1` showed a half-life greater than 30 min.

As for `Cc1cc(-c2nnc3n2CCCCC3)c(C)n1-c1cccc2ccccc12`, the half-life stood at 2.1 min.

On to `Cc1ccc(C(=O)NC2CCN(c3cnn(CC4CC4)c(=O)c3)CC2)cc1C`, for which the half-life is 16.3 min.

As for `Cc1ccc(C(=O)[C@H]2CC[C@@H](C(=O)Nc3ccc(S(=O)(=O)Nc4nccs4)cc3)C2)cc1C`, the half-life was found to be 2.5 min.

On to `Cc1ccc(-c2cc(C(=O)Nc3ccncc3)c3ccccc3n2)cc1`, for which the half-life is greater than 30 min.

`Cc1ccc2nc(NC3=NC(c4[nH]ncc4Cl)C4=C(CCCC4=O)N3)oc2c1` (stereo unspecified): the half-life worked out at 15.8 min.

As to `Cc1ccccc1-c1nc(NCc2ccc(-c3cccnc3)cc2)c2ccccc2n1`, the half-life was found to be 6.25 min.

Compound `COc1ccc(Nc2cnc3ccc(-c4ccc(OC)c(OC)c4)nn23)cc1` displayed a half-life of 6.77 min.

Compound `CS(=O)(=O)c1ccc(-c2cnc(NCc3ccco3)n3cnnc23)cc1` registered a half-life greater than 30 min.

`COc1cc(Nc2nc(-c3ccncc3)nc3ccccc23)ccc1Cl` gave a half-life of 12 min.

`Cc1cccc(S(=O)(=O)c2cn(Cc3ccccc3)c3cc(N4CCCCC4C)c(F)cc3c2=O)c1` (stereo unspecified) gave a half-life of 2 min.

As for `Cc1ccc(S(=O)(=O)Nc2cnccc2C(=O)Nc2nc(-c3ccc(C)c(C)c3)cs2)cc1`, the half-life turned out to be 2.1 min.

With `CCNC(=O)c1ccc(-c2ccc3ncnc(NCC4CCCO4)c3c2)o1` (stereo unspecified), the half-life is greater than 30 min.

Compound `CCOC(=O)N1CCN(Cc2nc3c(c(=O)n(C)c(=O)n3C)n2Cc2cccc(C)c2)CC1` displayed a half-life of 4.9 min.

The compound `Cc1nn(Cc2ccccc2Cl)c(C)c1CN(C)CC(O)COc1ccc(Cl)cc1` (stereo unspecified) returned a half-life of 2.2 min.

On to `CC1(COc2ccc3c(c2)ncn3-c2ccc3cccc(N4CCC(N)CC4)c3n2)COC1`, for which the half-life is greater than 30 min.

`CN(C)CC(=O)NC1CCCc2c1cnn2-c1ccc(F)cc1F` (stereo unspecified): the half-life is greater than 30 min.

In the case of `CC(=O)c1c(C)[nH]c(C(=O)Nc2cccc([S+](=O)([O-])Nc3cccnc3)c2)c1C`, the half-life is 17 min.

`C[S+](=O)([O-])c1ccc(-c2nc(C(=O)N3CCOCC3)n3ccncc23)cc1` displayed a half-life greater than 30 min.

Consider `COc1ccc(OC)c(-c2nc3c(C#N)c[nH]n3c2NC2CCCCC2)c1`, for which the half-life was 4.2 min.

As to `COCCNS(=O)(=O)c1cc(-c2nn3c(C)nnc3c3ccccc23)ccc1C`, the half-life is 4.77 min.

`Cc1noc(C)c1-c1ccc2ncnc(NC(C)c3ccccc3)c2c1` (stereo unspecified) displayed a half-life of 7.65 min.

`COc1cccc(CNc2ccc(S(=O)(=O)Nc3nc(C)c(C)s3)cc2)c1O` came in with a half-life of 12 min.

On to `Cc1ccc(NC(=O)CSc2ncc(S(=O)(=O)c3ccc(C(C)C)cc3)c(=O)[nH]2)cc1C`, for which the half-life was 4.98 min.

Compound `Clc1ccccc1CSc1nc2ncc(Br)cc2[nH]1` had a half-life of 6.5 min.

Compound `CN(C(=O)c1cn2c(-c3ccc(C(F)(F)F)cc3)cnc2cn1)c1ccc(C#N)cc1` displayed a half-life greater than 30 min.

On to `FC(F)(F)Oc1cccc(Nc2nc(-c3ccncc3)nc3ccccc23)c1`, for which the half-life amounted to 19 min.

As for `COC(=O)c1ccc(NC(=O)c2nc3ccccc3n(C)c2=O)cc1`, the half-life was 2.98 min.

With `Cc1nn2c(c1-c1ccccc1-c1ccccc1)N(CCC(C)C)CCC2`, the half-life is 1.31 min.

In turn, `Cc1cnc(CNc2nc(-c3ccccc3Cl)nc3ccccc23)cn1` yielded a half-life of 20 min.

With `O=C(O)c1ccnc2cc(C(OCC3CCC(F)(F)CC3)c3ccccc3Cl)[nH]c12` (stereo unspecified), the half-life was greater than 30 min.

Regarding `Cc1ccc(OCCn2c(CCNC(=O)c3ccccc3Br)nc3ccccc32)cc1`, the half-life worked out at 1.6 min.

The compound `CC(C)(C)c1cc(NC(=O)Nc2ccc(-c3cn4c(n3)sc3cc(OCCN5CCOCC5)ccc34)cc2)no1` returned a half-life greater than 30 min.

`CN(C)c1ccccc1-c1csc(N2CCC(C(N)=O)CC2)n1` showed a half-life of 9.95 min.

As for `O=[N+]([O-])c1cccc(CSc2nc3ncc(Br)cc3[nH]2)c1`, the half-life is 6.6 min.

In turn, `Cc1cccc(CNc2ccc(S(=O)(=O)Nc3nccs3)cc2)c1O` returned a half-life of 21 min.

`Fc1ccccc1-c1ccc(Nc2nc(-c3ccncc3)nc3ccccc23)cc1F`: the half-life was greater than 30 min.

`COc1ccc(-n2nc(C3CCCN(C(=O)c4ccccc4F)C3)[nH]c2=O)cc1` (stereo unspecified) showed a half-life greater than 30 min.

`CC(=O)c1ccc(N2CCN(S(=O)(=O)c3ccc4c(c3)CC(=O)N4)CC2)cc1` yielded a half-life greater than 30 min.

`CC1CCC(n2c3cnccc3c3cnc(Nc4ccc5c(n4)CCN(C(=O)CO)C5)nc32)CC1` (stereo unspecified): the half-life is 23.5 min.

Turning to `N#C/C(=C\c1ccc(Sc2ccc(Cl)cc2)o1)c1nc2ccccc2[nH]1`, the half-life came to 7.56 min.

The compound `COc1ncccc1-c1cc2c(ccn2CC2CCN([S+](C)(=O)[O-])CC2)c(N2CCOCC2)n1` yielded a half-life of 13.9 min.

Consider `CCOc1ccc(CCNC(=O)c2cc3sccc3n2CCN(C)C)cc1OCC`, for which the half-life worked out at 1.6 min.

In the case of `O=S(=O)(Nc1cccc2cccnc12)c1ccc(NCc2ccc(Br)cc2O)cc1`, the half-life stood at 2.4 min.

Take `COc1ccc(C(=O)c2sc(Nc3cccc(Cl)c3)nc2N)cc1`: the half-life came out at 5.07 min.

`O=C(Nc1nc(-c2ccccc2)cs1)c1ccncc1NS(=O)(=O)c1ccc(F)cc1` returned a half-life of 20 min.

`CN([C@@H](Cc1ccc(OS(=O)(=O)c2cccc3cnccc23)cc1)C(=O)N1CCN(c2ccccc2)CC1)S(=O)(=O)c1cccc2cnccc12` had a half-life of 1 min.

In turn, `CCCCCn1c(=O)[nH]c2cc(C(=O)NCCCN3CCC(C)CC3)ccc2c1=O` yielded a half-life of 16 min.

`CN(C(=O)CNC(=O)c1ccccc1OCC(=O)Nc1ccc(I)cc1)c1ccccc1` yielded a half-life of 1.44 min.

`NC(=O)C1CCN(c2ncnc(-c3ccc4c(c3)OCCCO4)n2)CC1` yielded a half-life of 17.3 min.

Consider `Cc1sc(NC(=O)Cc2ccc3c(c2)OCO3)nc1-c1ccc2c(c1)CCN2C`, for which the half-life is 5.5 min.

The compound `CC(C)(C#N)c1ccc(N2C(=O)OCc3cnc4ccc(-c5cnc6ccccc6c5)cc4c32)cc1` showed a half-life of 2.84 min.

For `Cc1nn2c(c1-c1ccccc1-c1ccccc1)N(Cc1ccc(O)cc1)CCC2`, the half-life stood at 1.97 min.

`c1coc(-c2nc3ccncc3[nH]2)c1`: the half-life was greater than 30 min.

Turning to `Cc1noc(C)c1[S+](=O)([O-])N1CCC2(CC1)CC(c1cccc(C(F)(F)F)c1)=NO2`, the half-life came to 24.8 min.

`Fc1ccc(Nc2nc(-c3ccccc3)cc(-c3ccncc3)n2)cc1F` registered a half-life greater than 30 min.

The compound `COc1ccccc1-c1nc(NCc2cnc(C)cn2)c2ccccc2n1` showed a half-life of 10 min.

The compound `CNc1ncc(-c2cccc3ccccc23)o1` came in with a half-life of 9.9 min.

Take `O=[S+]([O-])(Nc1ccccc1)c1ccc(NCc2cccc(Cl)c2F)cc1`: the half-life was 4.5 min.

Consider `Cc1ccccc1C(=O)N1CCc2cc(-c3csc(NC(=O)Cc4ccc5c(c4)OCO5)n3)ccc21`, for which the half-life stood at 10.2 min.
